Results taken from patent US20190150481A1, “COMPOSITIONS AND METHODS OF IMPROVING DIETARY PHOSPHORUS AND CALCIUM UTILIZATION IN ANIMALS” (Novus International, Inc., priority 2017, published 2019).
Several values for one entry are separate records, joined by “and”; a condition that tells them apart may be missing. Equal entries are not always repeated.

Columns and labels:
Assay type in all cases: in vivo
nursery pigs [1] = experiment: Bone (third metacarpal) Ca, P and ash concentrations in nursery pigs on day 42; settings: for Bone Ca (DM basis) / Bone P (DM basis) / Bone ash (DM basis): day 42
Excerpt: (§1) A total of 288 weaning barrows [TR-4×PIC C-22, initial body weight (BW)=5.71±0.71 kg] were allotted to 1 of 8 dietary treatments according to randomized complete block design. Pigs were blocked by initial body weight. The study started from weaning (day 0) to day 42 post-weaning. Three-phase feeding program was used in this study, in which day 0 to 14, day 15 to 28, and day 29 to 42 were considered as nursing phase 1, 2, and 3, respectively. A basal diet for each phase was formulated to meet the energy and nutrient requirement for different stages of pigs according to previously published recommendation,^1 with the exception of P [0.15% reduction of standardized total tract digestible (STTD) P] and Ca (adjusted according to the fixed ratio of Ca/STTD P=2.15). Eight experimental diets were formulated based on basal diet supplemented with phytase (0 or 500 FTU/kg), Zn sources (2000 ppm Zn from ZnO in phase 1 and 2, 100 ppm Zn from ZnO in phase 3; 100 ppm Zn from Zn(HMTBA)2 from phase 1 to 3) and Cu sources (150, 80, 80 ppm Cu from CuSO4 or Cu(HMTBA)2 in phase 1, 2, and 3, respectively) in a 2×2×2 factorial treatment design. Titanium dioxide at 0.4% was included in phase 2 diets to measure Ca and P digestibility.
On day 42, 2 pigs from each pen were euthanized to collect the right front legs. The third metacarpal bone from each right front leg was used to determine DM, Ca, P, and ash concentrations.
(§2) SAS 9.4 (SAS Inst. Inc., Gary, N.C.) was used for all data analysis. Pen served as the experimental unit. The LSMEANS statement was be used to calculate the least square means. Tukey-Kramer adjustment was used for multiple comparisons of the least square means. Pooled SEM will be calculated for each measurement. A probability of P 0.05 will be considered as significant and 0.05<P≤0.10 will be declared as a trend. Mineral sources (Zn and Cu), phytase and their interactions were considered as the main effect, while block was considered as the random effect.

nursery pigs [2] = experiment: Gain to feed ratio during d 15 to 28 in nursery pigs; settings: for G:F (d 15 to 28): 80 ppm Cu
Excerpt: as §1, §2

nursery pigs [3] = experiment: Standardized total tract digestibility (STTD) of Ca and P in nursery pigs, fecal grab sampling day 24 to 26, titanium dioxide marker; settings: for STTD of Ca / STTD of P: ZnO 2000 ppm Zn vs Zn(HMTBA)2 100 ppm Zn, nursery phase 2
Excerpt: as §1
Fresh fecal samples were collected via grab sampling from each pig per pen at least twice per day from day 24 to 26. Fecal samples collected from the same pen during the 3 days were pooled together, and a subsample was placed inside a large oven set at 65° C. Oven dried fecal samples were stored at room temperature until analysis for dry matter (DM), Ca, P, and titanium (Ti).
The apparent total tract digestibility (ATTD) coefficient for Ca and P in each treatment was calculated using the following formula:
ATTD of Ca, %=[1−(Cafeces/Cadiet)×(Mdiet/Mfeces)]×100 (Equation 1)
ATTD of P, %=[1−(Pfeces/Pdiet)×Mdiet/Mfeces)]×100 (Equation 2) where Cafeces and Cadiet represented Ca concentrations (g/kg) in feces and diet DM, respectively; Pfeces and Pdiet represented P concentrations (g/kg) in feces and diet DM; Mdiet and Mdigesta represent the marker concentrations (g/kg) in diet and feces DM, respectively.
The standard total tract digestibility (STTD) of Ca was calculated according to the following equation:
STTD of Ca, %=[ATTD of Ca+(basal ECaLend/Cadiet)×100] (Equation 3) where Cadiet represented Ca concentrations (g/kg) in diet DM, respectively; basal ECaLend represented basal endogenous loss of Ca which was approximately 330 mg/kg DMI.
The standard total tract digestibility (STTD) of P was calculated according to the following equation:
STTD of P, %=[ATTD of P+(basal EPLend/Pdiet)×100] (Equation 4) where Pdiet represented P concentrations (g/kg) in diet DM, respectively; basal EPLend represented basal endogenous loss of P which was approximately 190 mg/kg DMI.
as §2

[4] = both supplemented at 80 ppm, Cu source main effect

CSCCC(O)C(=O)[O-].CSCCC(O)C(=O)[O-].[Cu+2] (stereo not drawn) [Cu(HMTBA)2]
Difference to CuSO4 in bone Ca, P and ash (nursery pigs [1]; [4]): no significant differences | Bone Ca (DM basis) (nursery pigs [1]; no phytase): 12.55% | Bone P (DM basis) (nursery pigs [1]; no phytase): 6.44% | Bone ash (DM basis) (nursery pigs [1]; no phytase): 35.95% | Bone Ca (DM basis) (nursery pigs [1]; with phytase 500 FTU/kg): 14.89% | Bone P (DM basis) (nursery pigs [1]; with phytase 500 FTU/kg): 7.81% | Bone ash (DM basis) (nursery pigs [1]; with phytase 500 FTU/kg): 41.97% | Difference to CuSO4 in gain to feed ratio (G:F) during day 15 to 28 (nursery pigs [2]; [4]): no significant differences | G:F (d 15 to 28) (nursery pigs [2]; no phytase): 0.75 g/g | G:F (d 15 to 28) (nursery pigs [2]; with phytase 500 FTU/kg): 0.84 g/g

O=S(=O)([O-])[O-].[Cu+2] [CuSO4, reference compound]
Bone Ca (DM basis) (nursery pigs [1]; no phytase): 13.04% | Bone P (DM basis) (nursery pigs [1]; no phytase): 6.65% | Bone ash (DM basis) (nursery pigs [1]; no phytase): 36.69% | Bone Ca (DM basis) (nursery pigs [1]; with phytase 500 FTU/kg): 14.14% | Bone P (DM basis) (nursery pigs [1]; with phytase 500 FTU/kg): 7.38% | Bone ash (DM basis) (nursery pigs [1]; with phytase 500 FTU/kg): 40.41% | G:F (d 15 to 28) (nursery pigs [2]; no phytase): 0.76 g/g | G:F (d 15 to 28) (nursery pigs [2]; with phytase 500 FTU/kg): 0.80 g/g

CSCCC(O)C(=O)[O-].CSCCC(O)C(=O)[O-].[Zn+2] (stereo not drawn) [Zn(HMTBA)2]
STTD of Ca (nursery pigs [3]; no phytase): 53.30% | STTD of P (nursery pigs [3]; no phytase): 32.65% | STTD of Ca (nursery pigs [3]; with phytase 500 FTU/kg): 65.63% | STTD of P (nursery pigs [3]; with phytase 500 FTU/kg): 46.36% | Absolute increase of STTD of Ca compared with ZnO (nursery pigs [3]; with phytase supplementation): 6.45% | Absolute increase of STTD of P compared with ZnO (nursery pigs [3]; with phytase supplementation): 12.68% | Absolute increase of STTD of Ca compared with ZnO (nursery pigs [3]; without phytase): 4.81% | Absolute increase of STTD of P compared with ZnO (nursery pigs [3]; without phytase): 29.98%

[O]=[Zn] [ZnO, reference compound]
STTD of Ca (nursery pigs [3]; no phytase): 48.48% and 48.49% | STTD of P (nursery pigs [3]; no phytase): 2.67% | STTD of Ca (nursery pigs [3]; with phytase 500 FTU/kg): 59.18% | STTD of P (nursery pigs [3]; with phytase 500 FTU/kg): 33.68%
